According to patent US4863905A, “Renin inhibitors II” (Warner-Lambert Company, priority 1987, dated 1989):

These substances were tested against T1, renin (Homo sapiens, UniProt P00797) (assay: in vitro renin inhibitory activity, radioimmunoassay for angiotensin I). Conditions: renin incubated two hours at 37° with substrate angiotensinogen; angiotensin I by radioimmunoassay; molar concentration causing 50% inhibition.
T1 sequence (P00797 67-406): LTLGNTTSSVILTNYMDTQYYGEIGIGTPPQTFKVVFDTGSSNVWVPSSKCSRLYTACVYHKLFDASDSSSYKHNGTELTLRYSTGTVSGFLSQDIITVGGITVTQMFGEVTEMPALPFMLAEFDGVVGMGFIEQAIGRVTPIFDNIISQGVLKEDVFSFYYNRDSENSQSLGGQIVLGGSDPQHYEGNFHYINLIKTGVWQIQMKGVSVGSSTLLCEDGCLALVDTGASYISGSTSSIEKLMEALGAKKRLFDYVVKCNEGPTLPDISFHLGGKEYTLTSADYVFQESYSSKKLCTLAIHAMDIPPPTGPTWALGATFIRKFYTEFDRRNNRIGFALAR
Assay type: biochemical
Protocol: The effectiveness of the aforementioned compound is determined by a test for in vitro renin inhibitory activity. This activity is determined by a standard radioimmunoassay for angiotensin I. In this assay the enzyme, renin, incubated for two hours at 37° in the presence of a substrate, angiotensinogen, generates the product, angiotensin I. Test compounds are added to the incubation mixture. Relative activity is reported as the IC50, which is the molar concentration of test compound causing a 50% inhibition of the renin activity.
With “DNMA--HIS--CYCLOHEXYLALA[CHOHCH2 ](CH2)2 CH(CH3)2 [Example 5]” the IC50 was 1800 nM. Work on “DNMA--HIS--CYCLOHEXYLALA[CHOHCH2 ]GLY--LEU--NHCH2 Ph [Example 11]” yielded an IC50 of 6400 nM. Substance “DNMA--HIS--CYCLOHEXYLALA[CHOHCH2 ]GLY--NHCH2 CH(CH3)--CH2 CH3 [Example 16]” has an IC50 of 250 nM. Substance “DNMA--HIS--CYCLOHEXYLALA[CHOHCH2 ]GLY--NHCH2 Ph [Example 17]” has an IC50 of 3400 nM. “DNMA--HIS--CYCLOHEXYLALA[CHOHCH2 ]LEU--NHCH2 CH(CH3)--CH2 CH3 [Example 15]” was tested, and the IC50 was 170 nM. Substance “DNMA--HIS--CYCLOHEXYLALA[CHOHCH2 ]LEU--NHCH2 Ph [Example 14]” has an IC50 of 4400 nM. In the case of “DNMA--HIS--CYCLOHEXYLALA[CHOHCHOH]CH2 OH [Example 7]”, the IC50 is reported as 280 nM. In the case of “DNMA--HIS--LEU[CHOHCH2 ]SO2 NHCH2 CH2 Ph [Example 1]”, the IC50 is reported as 12000 nM. “DNMA--HIS--STA[CH2 NH]CH2 CH(CH3)CH2 CH3 [Example 10]” was tested, and the IC50 was 8700 nM. Substance “DNMA--HIS--STA[CH2 SO2 ](CH2)3 CH3 [Example 4]” has an IC50 of 160 nM. For “DNMA--HIS--STA[CHOHCH2 ]CH2 Ph [Example 18]”, the IC50 was 12000 nM. “DNMA--HIS[CH2 NH]STA--NHCH2 CH(CH3)CH2 CH3 [Example 8]” showed an IC50 of 16000 nM. For “DNMA[CHOHCH2 ]LEU--STA--NHCH2 CH(CH3)CH2 CH3 [Example 20]”, the IC50 was 1900 nM.

Same assay, conditions: renin incubated two hours at 37° with substrate angiotensinogen; angiotensin I by radioimmunoassay; molar concentration causing 50% inhibition; listed as DNMAHIS STA[CHOHCH2 ]CH2 Ph (ISOMER)
Substance “DNMA--HIS--STA[CHOHCH2 ]CH2 Ph [Example 19]” has an IC50 of 1400 nM.
